# Where two headings read alike, the source gives them in different places.
# Tests used:
# [1] = molecular target: wild-type EZH2 (PRC2 complex) (Homo sapiens (Human), UniProt Q15910); test: PRC2 enzyme assay on peptide substrates (wild-type EZH2)
# [2] = system: H3K27me3 in WSU-DLCL2 cells; test: WSU-DLCL2 methylation assay (H3K27me3 ELISA); assay type: cell-based; details: Homo sapiens, 96 hours
# [3] = system: WSU-DLCL2 cells; test: Cell proliferation analysis (WSU-DLCL2, Cell Titer Glo); assay type: cell-based; details: Homo sapiens, 6 days
# [4] = WSUDLCL2, Table 3A, read-out: H3K27Me3 ELISA IC50
# [5] = WSUDLCL2, Table 3B, read-out: WSU proliferation IC50
# [6] = WSUDLCL2, Table 3B, read-out: ELISA H3K27me3 IC50
# Chain of wild-type EZH2 (PRC2 complex) (Q15910 other isoform, or with tags, fused parts or gaps): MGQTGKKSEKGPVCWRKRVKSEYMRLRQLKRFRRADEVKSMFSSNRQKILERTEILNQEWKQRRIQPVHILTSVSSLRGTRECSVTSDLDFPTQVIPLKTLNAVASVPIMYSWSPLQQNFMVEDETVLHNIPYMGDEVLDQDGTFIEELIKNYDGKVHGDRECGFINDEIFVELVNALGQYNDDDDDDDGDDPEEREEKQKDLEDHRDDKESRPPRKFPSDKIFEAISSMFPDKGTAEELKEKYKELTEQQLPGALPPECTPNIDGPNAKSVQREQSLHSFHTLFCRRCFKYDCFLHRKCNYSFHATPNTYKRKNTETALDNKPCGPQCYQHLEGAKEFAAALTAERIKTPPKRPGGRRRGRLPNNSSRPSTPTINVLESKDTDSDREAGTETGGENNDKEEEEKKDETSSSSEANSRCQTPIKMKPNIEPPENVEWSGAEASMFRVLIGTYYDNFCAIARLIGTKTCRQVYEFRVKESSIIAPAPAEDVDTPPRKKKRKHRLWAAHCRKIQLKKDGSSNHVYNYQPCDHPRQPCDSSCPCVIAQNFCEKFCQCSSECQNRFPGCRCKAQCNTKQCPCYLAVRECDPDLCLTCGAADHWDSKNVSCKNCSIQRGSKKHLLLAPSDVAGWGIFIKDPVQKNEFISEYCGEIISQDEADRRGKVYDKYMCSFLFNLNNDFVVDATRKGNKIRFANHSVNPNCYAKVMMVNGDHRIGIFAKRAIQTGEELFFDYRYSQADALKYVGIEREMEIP
# Chain of wild-type EZH2 (PRC2 complex) (O75530 whole entry partner): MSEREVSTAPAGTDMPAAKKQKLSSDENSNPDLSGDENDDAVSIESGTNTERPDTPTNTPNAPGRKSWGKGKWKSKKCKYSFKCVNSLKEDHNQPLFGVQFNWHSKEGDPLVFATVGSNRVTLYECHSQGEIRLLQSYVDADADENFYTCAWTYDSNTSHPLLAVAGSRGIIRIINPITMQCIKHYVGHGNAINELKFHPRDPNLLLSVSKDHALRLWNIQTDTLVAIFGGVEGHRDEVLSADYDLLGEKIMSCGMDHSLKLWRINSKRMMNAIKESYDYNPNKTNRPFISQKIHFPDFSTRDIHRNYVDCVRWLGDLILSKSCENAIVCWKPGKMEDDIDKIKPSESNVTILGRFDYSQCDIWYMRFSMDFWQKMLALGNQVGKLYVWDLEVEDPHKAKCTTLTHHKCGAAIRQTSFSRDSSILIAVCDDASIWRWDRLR
# Chain of wild-type EZH2 (PRC2 complex) (Q15022 whole entry partner): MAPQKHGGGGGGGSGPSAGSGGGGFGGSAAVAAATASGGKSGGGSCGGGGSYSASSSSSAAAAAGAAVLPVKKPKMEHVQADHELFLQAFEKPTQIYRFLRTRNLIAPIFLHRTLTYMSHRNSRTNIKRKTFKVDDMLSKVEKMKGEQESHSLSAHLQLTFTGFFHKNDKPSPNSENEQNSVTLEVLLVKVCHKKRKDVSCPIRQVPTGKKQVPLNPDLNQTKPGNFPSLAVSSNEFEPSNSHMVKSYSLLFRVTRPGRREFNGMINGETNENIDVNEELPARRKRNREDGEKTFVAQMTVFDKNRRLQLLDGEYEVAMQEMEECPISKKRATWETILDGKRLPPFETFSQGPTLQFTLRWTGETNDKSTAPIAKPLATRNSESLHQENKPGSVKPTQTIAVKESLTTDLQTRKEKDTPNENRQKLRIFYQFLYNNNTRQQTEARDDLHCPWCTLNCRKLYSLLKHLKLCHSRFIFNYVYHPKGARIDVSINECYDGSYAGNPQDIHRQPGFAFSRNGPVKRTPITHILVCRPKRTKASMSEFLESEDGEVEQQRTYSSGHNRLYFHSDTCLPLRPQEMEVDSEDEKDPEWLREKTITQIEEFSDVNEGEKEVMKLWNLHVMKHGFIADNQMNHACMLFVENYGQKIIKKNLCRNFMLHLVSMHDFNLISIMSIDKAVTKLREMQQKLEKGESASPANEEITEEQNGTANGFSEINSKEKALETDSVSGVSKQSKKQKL
# Chain of wild-type EZH2 (PRC2 complex) (Q09028 whole entry partner): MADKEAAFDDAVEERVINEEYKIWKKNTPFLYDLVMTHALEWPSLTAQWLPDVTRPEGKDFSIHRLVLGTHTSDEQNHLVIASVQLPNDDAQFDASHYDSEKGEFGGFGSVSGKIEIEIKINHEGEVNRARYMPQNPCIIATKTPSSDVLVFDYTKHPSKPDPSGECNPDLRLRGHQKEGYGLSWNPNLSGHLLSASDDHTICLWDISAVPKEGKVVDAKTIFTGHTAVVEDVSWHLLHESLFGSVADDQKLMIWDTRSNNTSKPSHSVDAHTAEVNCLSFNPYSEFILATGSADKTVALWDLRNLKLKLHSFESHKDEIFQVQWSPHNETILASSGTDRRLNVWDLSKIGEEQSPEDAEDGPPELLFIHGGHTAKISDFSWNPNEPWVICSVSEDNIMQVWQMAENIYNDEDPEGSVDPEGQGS
SMILES,"IC50 [2, 6] [nM]","IC50 [3, 5] [nM]",also measured
"CCN(c1cc(-c2ccc(OCCOC)nc2)cc(C(=O)NCc2c(C)cc(C)[nH]c2=O)c1C)[C@H]1CC[C@H](N(C)C)CC1 [Compound 5, N-((4,6-dimethyl-2-oxo-1,2-dihydropyridin-3-yl)methyl)-3-(((trans)-4-(dimethylamino)cyclohexyl)(ethyl)amino)-5-(6-(2-methoxyethoxy)pyridin-3-yl)-2-methylbenzamide]",–,–,IC50 [1]: 13.1 nM
"CCN(c1cc(-c2ccc(OCCOCCOC)cc2)cc(C(=O)NCc2c(C)cc(C)[nH]c2=O)c1C)[C@H]1CC[C@H](N(C)C)CC1 [Compound 6, N-((4,6-dimethyl-2-oxo-1,2-dihydropyridin-3-yl)methyl)-5-(((trans)-4-(dimethylamino)cyclohexyl)(ethyl)amino)-4′-(2-(2-methoxyethoxy)ethoxy)-4-methyl-[1,1′-biphenyl]-3-carboxamide]",–,–,"IC50 [2, 4]: 57.5 nM; IC50 [1]: 15.4 nM"
"CCN(c1cc(-c2ccc(OCCOC)cc2)cc(C(=O)NCc2c(OC)cc(C)[nH]c2=O)c1C)[C@H]1CC[C@H](N(C)C)CC1 [Compound 6b, 5-(((trans)-4-(dimethylamino)cyclohexyl)(ethyl)amino)-N-((4-methoxy-6-methyl-2-oxo-1,2-dihydropyridin-3-yl)methyl)-4′-(2-methoxyethoxy)-4-methyl-[1,1′-biphenyl]-3-carboxamide]",–,–,"IC50 [2, 4]: 33.9 nM; IC50 [1]: < 5 nM"
"CCN(c1cc(OCCN2CCOCC2)cc(C(=O)NCc2c(C)cc(C)[nH]c2=O)c1C)[C@H]1CC[C@H](N(C)CCOC)CC1 [Compound 13, N-((4,6-dimethyl-2-oxo-1,2-dihydropyridin-3-yl)methyl)-3-(ethyl((trans)-4-((2-methoxyethyl)(methyl)amino)cyclohexyl)amino)-2-methyl-5-(2-morpholinoethoxy)benzamide]",–,–,"IC50 [2, 4]: > 50000 nM"
"CCN(c1cc(OCCCN2CCOCC2)cc(C(=O)NCc2c(C)cc(C)[nH]c2=O)c1C)[C@H]1CC[C@H](N(C)CCOC)CC1 [Compound 14, N-((4,6-dimethyl-2-oxo-1,2-dihydropyridin-3-yl)methyl)-3-(ethyl((trans)-4-((2-methoxyethyl)(methyl)amino)cyclohexyl)amino)-2-methyl-5-(3-morpholinopropoxy)benzamide]",–,–,"IC50 [2, 4]: 17100 nM"
CCN(c1cc(-c2cnc(C)nc2)cc(C(=O)NCc2c(C)cc(C)[nH]c2=O)c1C)[C@H]1CC[C@H](N(C)CCOC)CC1 [Compound 19],–,–,IC50 [1]: 9.81 nM
CCN(c1cc(-c2cnc(OC)nc2)cc(C(=O)NCc2c(C)cc(C)[nH]c2=O)c1C)[C@H]1CC[C@H](N(C)CCOC)CC1 [Compound 20],–,–,IC50 [1]: < 5 nM
CCN(c1cc(-c2ccc(CN3CCOCC3)cc2)cc(C(=O)NCc2c(C)cc(C)[nH]c2=O)c1C)[C@H]1CC[C@H](N(C)CCOC)CC1 [Compound 26],–,–,"IC50 ([3]; WSUDLCL2, Table 3A, read-out: WSU Prolif. IC50): 138 nM; IC50 [2, 4]: 87 nM"
"CCN(c1cc(C#CC2CCN(C)CC2)cc(C(=O)NCc2c(C)cc(C)[nH]c2=O)c1C)C1CCOCC1 [Compound 105, N-((4,6-dimethyl-2-oxo-1,2-dihydropyridin-3-yl)methyl)-3-(ethyl(tetrahydro-2H-pyran-4-yl)amino)-2-methyl-5-((1-methylpiperidin-4-yl)ethynyl)benzamide]",–,–,"IC50 [2, 4]: 150 nM"
CCN(c1cc(C#CCN2CCOCC2)cc(C(=O)NCc2c(C)cc(C)[nH]c2=O)c1C)C1CCC(N(C)C)CC1 (stereo not drawn) [Compound 111],14,201,–
CCN(c1cc(C#CCN2CCOCC2)cc(C(=O)NCc2c(C)cc(C)[nH]c2=O)c1C)[C@H]1CC[C@H](N(C)C)CC1 [Compound 111],–,–,IC50 [1]: < 5 nM
CCN(c1cc(C#CCN2CCCN(C)CC2)cc(C(=O)NCc2c(C)cc(C)[nH]c2=O)c1C)C1CCC(N(C)C)CC1 (stereo not drawn) [Compound 112],179,798,–
CCN(c1cc(-c2ccc(N3CCN(C)CC3)nc2)cc(C(=O)NCc2c(C)cc(C)[nH]c2=O)c1C)C1C[C@@H](C)N[C@H](C)C1 (stereo partly drawn) [Compound 124],166,158,–
CCN(c1cc(-c2ccc(N3CCN(C)CC3)nc2)cc(C(=O)NCc2c(C)cc(C)[nH]c2=O)c1C)C1CCN(C)CC1 [Compound 125],291,155,–
CCN(c1cc(-c2ccc(COC)nc2)cc(C(=O)NCc2c(C(C)C)cc(C)[nH]c2=O)c1C)C1CCOCC1 [Compound 129],354,254,–
CCN(c1cc(-c2ccc(OC)nc2)cc(C(=O)NCc2c(C)cc(C)[nH]c2=O)c1C)C1CCOCC1 [Compound 130],218,218,–
CCN(c1cc(-c2ccc(OC3CCN(C)CC3)nc2)cc(C(=O)NCc2c(C)cc(C)[nH]c2=O)c1C)C1CCOCC1 [Compound 133],–,503,–
CCN(c1cc(-c2ccc(CN3CCC(O)CC3)nc2)cc(C(=O)NCc2c(C(C)C)cc(C)[nH]c2=O)c1C)C1CCOCC1 [Compound 140],–,716,–
CCN(c1cc(-c2ccc(CN3CCC(O)CC3)c(F)c2)cc(C(=O)NCc2c(C)cc(C)[nH]c2=O)c1C)C1CCOCC1 [Compound 153],–,476,–
CCN(c1cc(C#CC2CCN(C3CN(C)C3)CC2)cc(C(=O)NCc2c(C)cc(C)[nH]c2=O)c1C)C1CCOCC1 [Compound 162],–,–,IC50 [1]: 12 nM

# Continued, in another order:
"IC50 [2, 6] [nM]",SMILES,"IC50 [3, 5] [nM]",also measured
192,CCN(c1cc(-c2ccc(CN3CCCN(C)CC3)nc2)cc(C(=O)NCc2c(C)cc(C)[nH]c2=O)c1C)C1CCOCC1 [Compound 135],176,–
259,CCN(c1cc(-c2ccc(CN3CCCN(C)CC3)nc2)cc(C(=O)NCc2c(C(C)C)cc(C)[nH]c2=O)c1C)C1CCOCC1 [Compound 136],566,–
56,CCN(c1cc(-c2ccc(N3CCCN(C)CC3)nc2)cc(C(=O)NCc2c(C)cc(C)[nH]c2=O)c1C)C1CCOCC1 [Compound 137],505,–
288,CCN(c1cc(-c2ccc(CN3CCCC3)nc2)cc(C(=O)NCc2c(C)cc(C)[nH]c2=O)c1C)C1CCOCC1 [Compound 138],178,–
95.8,CCN(c1cc(-c2ccc(CN3CCCCC3)nc2)cc(C(=O)NCc2c(C)cc(C)[nH]c2=O)c1C)C1CCOCC1 [Compound 139],24.9,–
349,CCN(c1cc(-c2ccc(CN3CCC[C@H](O)C3)nc2)cc(C(=O)NCc2c(C(C)C)cc(C)[nH]c2=O)c1C)C1CCOCC1 [Compound 141],123,–
699,CCN(c1cc(-c2ccc(CN3CCOCC3)nc2)cc(C(=O)NCc2c(C(F)(F)F)cc(C)[nH]c2=O)c1C)C1CCOCC1 [Compound 142],2000,–
18,CCN(c1cc(-c2ccc(N3CCC(O)CC3)nc2)cc(C(=O)NCc2c(C)cc(C)[nH]c2=O)c1C)[C@H]1CC[C@H](N(C)C)CC1 [Compound 143],276,–
92,CCN(c1cc(-c2ccc(N3CC(O)C3)nc2)cc(C(=O)NCc2c(C)cc(C)[nH]c2=O)c1C)[C@H]1CC[C@H](N(C)C)CC1 [Compound 144],1540,–
84.2,CCN(c1cc(-c2ccc(CN3CCOCC3)nc2)cc(C(=O)NCc2c(C)cc(C)[nH]c2=O)c1C)[C@H]1CC[C@H](N(C)C)CC1 [Compound 145],185,–
529,CCN(c1cc(-c2ccc(CN3CC(O)C3)c(F)c2)cc(C(=O)NCc2c(C)cc(C)[nH]c2=O)c1C)C1CCOCC1 [Compound 154],394,–

# Reference: patent publication US11642348B2, “Substituted benzene compounds” (Epizyme, Inc., priority 2012, dated 2023)
